Results from patent publication US20180289957A1, “REMINERALISATION OF CALCIFIED TISSUE” (Reminova Ltd., priority 2008, published 2018).

System: extracted incisor tooth
Assay: Tooth-whitening effect on extracted incisor tooth, images before and after treatment
Conditions: 2 minutes pre-conditioning with solution, no remineralising agent
Source text: This image was taken prior to any treatment being carried out.
The dark discolourations in the enamel of the crown of the tooth adjacent to the cavity have also disappeared.

OCl [hypochlorite, sodium hypochlorite]
tooth discolouration, difference versus before treatment: very little difference
